Tested on: normal fibroblast
Experiment: Bcl2 level on co-administration with VEGF
Type: cell-based
Details: co-administration of CoQ-10 and VEFG
Source text: The term “Multidimensional Intracellular Molecule (MIM)”, is an isolated version or synthetically produced version of an endogenous molecule that is naturally produced by the body and/or is present in at least one cell of a human. A MIM is capable of entering a cell and the entry into the cell includes complete or partial entry into the cell as long as the biologically active portion of the molecule wholly enters the cell. MIMs are capable of inducing a signal transduction and/or gene expression mechanism within a cell. MIMs are multidimensional because the molecules have both a therapeutic and a carrier, e.g., drug delivery, effect. MIMs also are multidimensional because the molecules act one way in a disease state and a different way in a normal state.

Coenzyme Q10 [CoQ10]
Level of Bcl2: no effect on the levels of Bcl2

From US20130266557A1, “METHODS FOR TREATMENT OF A SARCOMA USING AN EPIMETABOLIC SHIFTER (COENZYME Q10)” (priority 2009, published 2013)
